Data: publication PMC9481151, “Discovery of new symmetrical and asymmetrical nitrile-containing 1,4-dihydropyridine derivatives as dual kinases and P-glycoprotein inhibitors: synthesis, in vitro assays, and in silico studies” (Journal of Enzyme Inhibition and Medicinal Chemistry, 2022)

Tests used:
[1] = system: Pseudomonas aeruginosa; assay: Agar well diffusion method
[2] = system: U251; assay: NCI single dose (10 µM) SRB screen; format: cell-based, human; settings: CNS cancer, 48 h
[3] = system: SNB-19; assay: NCI single dose (10 µM) SRB screen; format: cell-based, human; settings: CNS cancer, 48 h
[4] = system: A498; assay: NCI single dose (10 µM) SRB screen; format: cell-based, human; settings: renal cancer, 48 h
[5] = system: CAKI-1; assay: NCI single dose (10 µM) SRB screen; format: cell-based, human; settings: renal cancer, 48 h
[6] = system: SNB-75; assay: NCI single dose (10 µM) SRB screen; format: cell-based, human; settings: CNS cancer, 48 h
[7] = system: NCI/ADR-RES; assay: NCI single dose (10 µM) SRB screen; format: cell-based, human; settings: ovarian cancer, 48 h
[8] = system: MDA-MB-435; assay: NCI single dose (10 µM) SRB screen; format: cell-based, human; settings: melanoma, 48 h
[9] = system: SF-268; assay: NCI single dose (10 µM) SRB screen; format: cell-based, human; settings: CNS cancer, 48 h
[10] = system: K-562; assay: NCI single dose (10 µM) SRB screen; format: cell-based, human; settings: leukaemia, 48 h
[11] = system: UACC-62; assay: NCI single dose (10 µM) SRB screen; format: cell-based, human; settings: melanoma, 48 h
[12] = system: NCI-H460; assay: NCI single dose (10 µM) SRB screen; format: cell-based, human; settings: non-small cell lung cancer, 48 h
[13] = system: SK-MEL-2; assay: NCI single dose (10 µM) SRB screen; format: cell-based, human; settings: melanoma, 48 h
[14] = system: MDA-MB-468; assay: NCI single dose (10 µM) SRB screen; format: cell-based, human; settings: breast cancer, 48 h
[15] = system: T-47D; assay: NCI single dose (10 µM) SRB screen; format: cell-based, human; settings: breast cancer, 48 h
[16] = system: NCI-H522; assay: NCI single dose (10 µM) SRB screen; format: cell-based, human; settings: non-small cell lung cancer, 48 h
[17] = system: MDA-MB-231; assay: NCI single dose (10 µM) SRB screen; format: cell-based, human; settings: breast cancer, 48 h
[18] = system: Bacillus subtilis; assay: Agar well diffusion method
[19] = system: Staphylococcus aureus; assay: Agar well diffusion method
[20] = system: SR; assay: NCI single dose (10 µM) SRB screen; format: cell-based, human; settings: leukaemia, 48 h
[21] = system: ACHN; assay: NCI single dose (10 µM) SRB screen; format: cell-based, human; settings: renal cancer, 48 h
[22] = system: MALME-3M; assay: NCI single dose (10 µM) SRB screen; format: cell-based, human; settings: melanoma, 48 h
[23] = system: DU-145; assay: NCI single dose (10 µM) SRB screen; format: cell-based, human; settings: prostate cancer, 48 h
[24] = system: EKVX; assay: NCI single dose (10 µM) SRB screen; format: cell-based, human; settings: non-small cell lung cancer, 48 h
[25] = system: SN12C; assay: NCI single dose (10 µM) SRB screen; format: cell-based, human; settings: renal cancer, 48 h
[26] = system: HT29; assay: NCI single dose (10 µM) SRB screen; format: cell-based, human; settings: colon cancer, 48 h
[27] = system: 786-0; assay: NCI single dose (10 µM) SRB screen; format: cell-based, human; settings: renal cancer, 48 h
[28] = system: M14; assay: NCI single dose (10 µM) SRB screen; format: cell-based, human; settings: melanoma, 48 h
[29] = system: A549/ATCC; assay: NCI single dose (10 µM) SRB screen; format: cell-based, human; settings: non-small cell lung cancer, 48 h
[30] = system: TK-10; assay: NCI single dose (10 µM) SRB screen; format: cell-based, human; settings: renal cancer, 48 h
[31] = system: COLO 205; assay: NCI single dose (10 µM) SRB screen; format: cell-based, human; settings: colon cancer, 48 h
[32] = system: Escherichia coli; assay: Agar well diffusion method
[33] = system: NCI-H23; assay: NCI single dose (10 µM) SRB screen; format: cell-based, human; settings: non-small cell lung cancer, 48 h
[34] = system: HCT-15; assay: NCI single dose (10 µM) SRB screen; format: cell-based, human; settings: colon cancer, 48 h
[35] = system: KM12; assay: NCI single dose (10 µM) SRB screen; format: cell-based, human; settings: colon cancer, 48 h
[36] = system: UACC-257; assay: NCI single dose (10 µM) SRB screen; format: cell-based, human; settings: melanoma, 48 h
[37] = system: SF-539; assay: NCI single dose (10 µM) SRB screen; format: cell-based, human; settings: CNS cancer, 48 h
[38] = system: HOP-62; assay: NCI single dose (10 µM) SRB screen; format: cell-based, human; settings: non-small cell lung cancer, 48 h
[39] = system: MOLT-4; assay: NCI single dose (10 µM) SRB screen; format: cell-based, human; settings: leukaemia, 48 h
[40] = system: RPMI-8226; assay: NCI single dose (10 µM) SRB screen; format: cell-based, human; settings: leukaemia, 48 h
[41] = system: PC-3; assay: NCI single dose (10 µM) SRB screen; format: cell-based, human; settings: prostate cancer, 48 h
[42] = system: SK-OV-3; assay: NCI single dose (10 µM) SRB screen; format: cell-based, human; settings: ovarian cancer, 48 h
[43] = system: OVCAR-5; assay: NCI single dose (10 µM) SRB screen; format: cell-based, human; settings: ovarian cancer, 48 h
[44] = system: IGROV1; assay: NCI single dose (10 µM) SRB screen; format: cell-based, human; settings: ovarian cancer, 48 h
[45] = system: SF-295; assay: NCI single dose (10 µM) SRB screen; format: cell-based, human; settings: CNS cancer, 48 h
[46] = system: CCRF-CEM; assay: NCI single dose (10 µM) SRB screen; format: cell-based, human; settings: leukaemia, 48 h
[47] = system: HOP-92; assay: NCI single dose (10 µM) SRB screen; format: cell-based, human; settings: non-small cell lung cancer, 48 h
[48] = system: NCI-H322M; assay: NCI single dose (10 µM) SRB screen; format: cell-based; settings: non-small cell lung cancer, 48 h
[49] = system: HL-60(TB); assay: NCI single dose (10 µM) SRB screen; format: cell-based, human; settings: leukaemia, 48 h
[50] = system: HCC-2998; assay: NCI single dose (10 µM) SRB screen; format: cell-based, human; settings: colon cancer, 48 h
[51] = system: HCT-116; assay: NCI single dose (10 µM) SRB screen; format: cell-based, human; settings: colon cancer, 48 h
[52] = system: SK-MEL-28; assay: NCI single dose (10 µM) SRB screen; format: cell-based, human; settings: melanoma, 48 h
[53] = system: UO-31; assay: NCI single dose (10 µM) SRB screen; format: cell-based, human; settings: renal cancer, 48 h

CC1=C(C(=O)OCc2ccccc2)C(c2cccc(C#N)c2)C(C(=O)OCc2ccccc2)=C(C)N1 [Compound 1g, Dibenzyl 4-(3-cyanophenyl)-2,6-dimethyl-1,4-dihydropyridine-3,5-dicarboxylate]
zone of inhibition at 1000 µg/mL ([1]; Pseudomonas aeruginosa, 24 h, read-out: Diameter of inhibition zone, P. aeruginosa): 16 mm
% activity index, P. aeruginosa ([1]; relative to ciprofloxacin): 69.6%
GI% U251 [2]: 49%
GI% SNB-19 [3]: 32%
GI% A498 [4]: 21%
GI% CAKI-1 [5]: 56%
GI% SNB-75 [6]: 23%
GI% NCI/ADR-RES [7]: 45%
GI% MDA-MB-435 [8]: 36%
GI% SF-268 [9]: 38%
GI% K-562 [10]: 69%
GI% UACC-62 [11]: 38%
GI% NCI-H460 [12]: 64%
GI% SK-MEL-2 [13]: 19%
GI% MDA-MB-468 [14]: 62%
GI% T-47D [15]: 53%
GI% NCI-H522 [16]: 46%
GI% MDA-MB-231 [17]: 37%
zone of inhibition at 1000 µg/mL ([18]; Bacillus subtilis, 24 h, read-out: Diameter of inhibition zone, B. subtilis): 11 mm
% activity index, B. subtilis ([18]; relative to ciprofloxacin): 47.8%
zone of inhibition at 1000 µg/mL ([19]; Staphylococcus aureus, 24 h, read-out: Diameter of inhibition zone, S. aureus): 15 mm
% activity index, S. aureus ([19]; relative to ciprofloxacin): 62.5%
GI% SR [20]: 57%
GI% ACHN [21]: 52%
GI% MALME-3M [22]: 32%
GI% DU-145 [23]: 26%
GI% EKVX [24]: 50%
GI% SN12C [25]: 32%
GI% HT29 [26]: 48%
GI% 786-0 [27]: 32%
GI% M14 [28]: 35%
GI% A549/ATCC [29]: 45%
GI% TK-10 [30]: – (Only GI% ≥ 10 are shown)
GI% COLO 205 [31]: 47%
zone of inhibition at 1000 µg/mL ([32]; Escherichia coli, 24 h, read-out: Diameter of inhibition zone, E. coli): 10 mm
% activity index, E. coli ([32]; relative to ciprofloxacin): 38.5%
GI% NCI-H23 [33]: 23%
GI% HCT-15 [34]: 72%
GI% KM12 [35]: 45%
GI% UACC-257 [36]: 36%
GI% SF-539 [37]: 35%
GI% HOP-62 [38]: 10%
GI% MOLT-4 [39]: 68%
GI% RPMI-8226 [40]: 65%
GI% PC-3 [41]: 76%
GI% SK-OV-3 [42]: – (Only GI% ≥ 10 are shown)
GI% OVCAR-5 [43]: 19%
GI% IGROV1 [44]: 45%
GI% SF-295 [45]: 56%
GI% CCRF-CEM [46]: 54%
GI% HOP-92 [47]: 42%
GI% NCI-H322M [48]: 15%
GI% HL-60(TB) [49]: 62%
GI% HCC-2998 [50]: – (Only GI% ≥ 10 are shown)
GI% HCT-116 [51]: 76%
GI% SK-MEL-28 [52]: 34%
GI% UO-31 [53]: 34%
